Measurements taken from US20220033431A1, “Cyclic Di-Nucleotide Compounds as STING Agonists” (Merck Sharp & Dohme Corp., priority 2018, published 2022).
Read-outs that look alike come from different tables or passages of the source.

Legend:
[1] = tested on: THP1 cells; experiment: IFN-β secretion in THP1 cell culture (5 h); format: cell-based, human; details: 30 uM cGAMP = 100%; for activation at 30 µM: Homo sapiens, THP-1, 5 h
Experimental: The ability of compounds to stimulate the secretion of interferon-beta from THP1 cells was measured using a human IFN-β AlphaLISA kit (Perkin Elmer, Cat. No. AL265F). The basic protocol is as follows:
A Labcyte Echo 550 acoustic dispenser was used to transfer 120 nL of compound dissolved in DMSO into the wells of an empty, sterile 384-well microplate, (Corning, Cat. No. 3712). THP1 cells (American Type Culture Collection, Cat. No. TIB202) previously frozen in Recovery Medium (Life Technologies, Cat. No. 12648-010) were thawed and immediately diluted 10-fold into 37° C. assay medium (RPMI 1640+L-Glutamine & phenol red, Life Technologies, Cat. No. 11875-085; 0.5% heat inactivated fetal bovine serum, Sigma Aldrich, Cat. No. F4135; 1 mM Sodium Pyruvate, Life Technologies, Cat. No. 11360-070; lx non essential amino acids; Life Technologies, Cat. No. 11140-050). The cell viability and count was ascertained using a Beckman Coulter V-Cell XR cell counter. The cell suspension was centrifuged at 200×g for 5 min at RT. Cells were resuspended to a density of 0.8×10^6/mL in 37° C. assay medium. Subsequent liquid transfers were performed using either a Matrix electronic multichannel pipette or an Agilent Bravo Automated Liquid Handling Platform.
The assay was started by dispensing 40 μL of the previously prepared cell suspension into the wells of the plate containing compounds. After 5 h incubation at 37° C., 5% CO2 in a humidified atmosphere, the plate of cells and compounds was centrifuged at 200×g for 5 min at RT. From each well, […] of supernatant was transferred into corresponding wells of a white 384-well plate (Perkin Elmer, Cat. No. 6005620). To these supernatant-containing wells was added 10 μL of 5× Anti-Analyte Acceptor beads (50 μg/mL of AlphaLISA HiBlock Buffer) and incubated for 30 min at RT while shaking on an orbital plate shaker. To each well was added 10 μL of 5× Biotinylated Antibody Anti-analyte (5 nM in AlphaLISA HiBlock Buffer) and incubated on an orbital plate shaker for 60 min at RT or overnight at 4° C. To each well was added 25 μL of 2× SA-Donor beads ([…] in AlphaLISA HiBlock Buffer) and incubated for 30-45 min at RT in the dark while shaking on an orbital plate shaker. The plate was then read on a Perkin Elmer Envision (λex=680 nm, λem=[…]). The percent effect of the AlphaLISA signal at each compound concentration was calculated based on 30 uM cGAMP positive controls and 0.3% DMSO negative controls. The plot of percent effect versus the log of compound concentration was fit with a 4-parameter concentration response equation to calculate EC50 values. The test compounds were tested at concentrations 30000, 10000, 3333, 1111, 370.4, 123.4, 41.2, 13.7, 4.6, and 1.5 nM with 0.3% residual DMSO. The control compound, cGAMP was tested at concentrations 100000, 33333, 11111, 3704, 1235, 412, 137, 46, and 15 nM with 0.3% residual DMSO.
Compounds of the disclosure were evaluated for IFN-β secretion in THP1 cell culture as described above. The following table tabulates the biological data for these compounds as percent activation relative to 2′3′-cGAMP at the 30 μM concentration.

[2] = biological target: T1, full-length HAQ STING (Homo sapiens, UniProt Q86WV6, G230A/H232R/R293Q/R71H); experiment: 3H-cGAMP filtration binding assay (HAQ STING); details: 3H-cGAMP filtration binding assay for HAQ STING; competition with tritiated cGAMP
T1 construct: Full-Length HAQ STING [STING(1-379)R71H, G230A, H232R,; made in house; host or cells: Trichoplusia ni insect cells (baculovirus made in Sf21); membrane preparation
T1 sequence (Q86WV6 with tags, fused parts or gaps R71H/G230A/H232R/R293Q): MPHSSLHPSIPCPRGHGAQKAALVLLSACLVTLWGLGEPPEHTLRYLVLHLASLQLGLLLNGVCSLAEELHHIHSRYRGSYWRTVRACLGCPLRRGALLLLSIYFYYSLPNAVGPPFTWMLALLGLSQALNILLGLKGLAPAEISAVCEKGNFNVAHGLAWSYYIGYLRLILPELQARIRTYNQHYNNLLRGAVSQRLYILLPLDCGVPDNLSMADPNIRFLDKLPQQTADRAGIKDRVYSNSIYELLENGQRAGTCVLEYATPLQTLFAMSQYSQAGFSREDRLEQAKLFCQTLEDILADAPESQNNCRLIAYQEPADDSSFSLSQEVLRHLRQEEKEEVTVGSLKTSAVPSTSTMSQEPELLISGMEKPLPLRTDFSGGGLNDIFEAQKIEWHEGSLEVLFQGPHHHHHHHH
Source text: The ability of compounds to bind STING is quantified by their ability to compete with tritiated cGAMP ligand for human STING receptor membrane using a radioactive filter-binding assay. The binding assay employs STING receptor obtained from Trichoplusia ni cell membranes (T.ni; Expression Systems, cat #94-002F, www.expressionsystems.com) overexpressing full-length HAQ STING and tritiated cGAMP ligand.
The basic HAQ STING filtration assay protocol is as follows:
Compound and membrane then preincubated for 60 min at RT to allow compound binding to equilibrate. Following equilibration, 8 nM of [^3H]c-GAMP ligand was prepared by diluting into assay buffer, and 50 uL of this working stock was then manually added to each well of the assay plate. […] The filter plates were then dried at 55° C. for 30 min using a pressurized oven before 30 uL of ULTIMA GOLD F scintillate was added to each well. Tritium levels for each reaction well were then measured using a PerkinElmer TopCount plate reader.
After normalization to controls, the percent activity for each compound concentration was calculated by measuring the amount of remaining radioactivity. The plot of percent activity versus the log of compound concentration was fit with a 4-parameter dose response equation to calculate EC50 values.

[3] = IFN-β secretion, THP1 cells, 5 h, 30 μM
[4] = IFN-β secretion, THP1 cells, 5 h, 30 μM, read-out: % Effect at 30 μM relative to 2′3′-cGAMP

Nc1nc2c(ncn2[C@@H]2O[C@@H]3COP(=O)(S)O[C@H]4[C@H](F)[C@H](n5nnc6c(N)ncnc65)O[C@@H]4COP(=O)(S)O[C@H]2[C@@H]3O)c(=O)[nH]1 (single isomer, unassigned) [Example 1]
% Effect at 30 μM relative to 2′3′-cGAMP [1, 3]: 24%
EC50 [2]: 1.14 µM

Nc1nc2c(ncn2[C@@H]2O[C@@H]3COP(=O)(S)O[C@H]4[C@H](F)[C@H](n5nnc6c(N)ncnc65)O[C@@H]4COP(=O)(S)O[C@H]2[C@@H]3O)c(=O)[nH]1 (single isomer, unassigned) [Example 2]
% Effect at 30 μM relative to 2′3′-cGAMP [1, 3]: 29%
EC50 [2]: 1.13 µM

Nc1nc2c(ncn2[C@@H]2O[C@@H]3COP(=O)(S)O[C@H]4[C@H](F)[C@H](n5nnc6c(N)ncnc65)O[C@@H]4COP(=O)(S)O[C@H]2[C@@H]3O)c(=O)[nH]1 (single isomer, unassigned) [Example 3]
% Effect at 30 μM relative to 2′3′-cGAMP [1, 3]: 128%
EC50 [2]: 0.0513 µM

Nc1nc2c(ncn2[C@@H]2O[C@@H]3COP(=O)(S)O[C@H]4[C@H]5OC[C@]4(COP(=O)(S)O[C@H]2[C@@H]3O)O[C@H]5n2cnc3c(N)ncnc32)c(=O)[nH]1 (single isomer, unassigned) [Example 4]
% Effect at 30 μM relative to 2′3′-cGAMP [1, 3]: 113%

Nc1nc2c(ncn2[C@@H]2O[C@@H]3COP(=O)(S)O[C@H]4[C@H]5OC[C@]4(COP(=O)(S)O[C@H]2[C@@H]3O)O[C@H]5n2cnc3c(N)ncnc32)c(=O)[nH]1 (single isomer, unassigned) [Example 5]
activation at 30 µM [1, 4]: 113%

Nc1nc2c(ncn2[C@@H]2O[C@@H]3COP(=O)(S)O[C@H]4[C@H](F)[C@H](n5nnc6c(N)ncnc65)O[C@@H]4COP(=O)(S)O[C@H]2C3)c(=O)[nH]1 (single isomer, unassigned) [Example 6]
% Effect at 30 μM relative to 2′3′-cGAMP [1, 3]: 60%
EC50 [2]: 0.241 µM

Nc1nc2c(ncn2[C@@H]2O[C@@H]3COP(=O)(S)O[C@H]4[C@H](F)[C@H](n5nnc6c(N)ncnc65)O[C@@H]4COP(=O)(S)O[C@H]2C3)c(=O)[nH]1 (single isomer, unassigned) [Example 7]
% Effect at 30 μM relative to 2′3′-cGAMP [1, 3]: 15%
EC50 [2]: 3.67 µM

Nc1nc2c(ncn2[C@@H]2O[C@@H]3COP(=O)(S)O[C@H]4[C@H](F)[C@H](n5nnc6c(N)ncnc65)O[C@@H]4COP(=O)(S)O[C@H]2C3)c(=O)[nH]1 (single isomer, unassigned) [Example 8]
% Effect at 30 μM relative to 2′3′-cGAMP [1, 3]: 145%
EC50 [2]: 0.026 µM

Nc1nc2c(ncn2[C@@H]2O[C@@H]3COP(=O)(O)O[C@H]4[C@H](F)[C@H](n5cnc6c(N)ncnc65)O[C@@H]4COP(=O)(S)O[C@H]2[C@@H]3F)c(=O)[nH]1 (single isomer, unassigned) [Example 13]
% Effect at 30 μM relative to 2′3′-cGAMP [1, 3]: 79%

Nc1nc2c(ncn2[C@@H]2O[C@@H]3COP(=O)(O)O[C@H]4[C@H](F)[C@H](n5cnc6c(N)ncnc65)O[C@@H]4COP(=O)(S)O[C@H]2[C@@H]3F)c(=O)[nH]1 (single isomer, unassigned) [Example 14]
% Effect at 30 μM relative to 2′3′-cGAMP [1, 3]: 257%

Nc1nc2c(ncn2[C@@H]2O[C@@H]3COP(=O)(S)O[C@H]4[C@H](F)[C@H](n5cnc6c(N)ncnc65)O[C@@H]4COP(=O)(S)O[C@H]2[C@@H]3F)c(=O)[nH]1 (single isomer, unassigned) [Example 15]
% Effect at 30 μM relative to 2′3′-cGAMP [1, 3]: 31%

Nc1nc2c(ncn2[C@@H]2O[C@@H]3COP(=O)(S)O[C@H]4[C@H](F)[C@H](n5cnc6c(N)ncnc65)O[C@@H]4COP(=O)(S)O[C@H]2[C@@H]3F)c(=O)[nH]1 (single isomer, unassigned) [Example 16]
% Effect at 30 μM relative to 2′3′-cGAMP [1, 3]: 188%

Nc1nc2c(ncn2[C@@H]2O[C@@H]3COP(=O)(S)O[C@H]4[C@H](F)[C@H](n5cnc6c(N)ncnc65)O[C@@H]4COP(=O)(S)O[C@H]2[C@@H]3F)c(=O)[nH]1 (single isomer, unassigned) [Example 17]
% Effect at 30 μM relative to 2′3′-cGAMP [1, 3]: 141%

Nc1nc2c(nnn2[C@@H]2O[C@@H]3COP(=O)(S)O[C@H]4C[C@H](n5ccc6c(N)ncnc65)O[C@@H]4COP(=O)(S)O[C@H]2C3)c(=O)[nH]1 (single isomer, unassigned) [Example 22]
activation at 30 µM [1, 4]: 69%

Nc1nc2c(nnn2[C@@H]2O[C@@H]3COP(=O)(S)O[C@H]4C[C@H](n5ccc6c(N)ncnc65)O[C@@H]4COP(=O)(S)O[C@H]2[C@@H]3F)c(=O)[nH]1 (single isomer, unassigned) [Example 25]
activation at 30 µM [1, 4]: 92%
EC50 [2]: 0.0999 µM

Nc1nc2c(nnn2[C@@H]2O[C@@H]3COP(=O)(S)O[C@H]4C[C@H](n5ccc6c(N)ncnc65)O[C@@H]4COP(=O)(S)O[C@H]2[C@@H]3F)c(=O)[nH]1 (single isomer, unassigned) [Example 26]
% Effect at 30 μM relative to 2′3′-cGAMP [1, 3]: 79%
EC50 [2]: 0.00562 µM

Nc1nc2c(nnn2[C@@H]2O[C@@H]3COP(=O)(S)O[C@H]4[C@H](F)[C@H](n5nnc6c(N)ncnc65)O[C@@H]4COP(=O)(S)O[C@H]2[C@@H]3F)c(=O)[nH]1 (stereo partly drawn) [Example 24, 5-amino-3-[(5R,7R,8R,12aR,14R,15S,15aR,16R)-14-(7-amino-3H-[1,2,3]triazolo[4,5-d]pyrimidin-3-yl)-15,16-difluoro-2,10-dioxido-2,10-disulfanyloctahydro-12H-5,8-methanofuro[3,2-1][1,3,6,9,11,2,10]pentaoxadiphosphacyclotetradecin-7-yl]-3,6-dihydro-7H-[1,2,3]triazolo[4,5-d]pyrimidin-7-one]
activation at 30 µM ([1]; read-out: % Effect at 30 μM relative to 2′3′-cGAMP, IFN-β secretion, THP1 cells, 5 h, 30 μM): 129%
